Results: US12617762B2, “Carboxy derivatives with antiinflamatory properties” (Sitryx Therapeutics Limited, priority 2019, dated 2026)
pIC50: −log10 of the molar value.

Assays:
[1] = Hepatocyte stability assay, human; type: in vitro ADME; conditions: human, hepatocytes; for hepatocyte CLint at 10 μM: Hepatocyte stability Clint; for half-life at 10 μM: Hepatocyte stability T½
Excerpt: (§1) Defrosted cryo-preserved hepatocytes (viability >70%) were used to determine the metabolic stability of a compound via calculation of intrinsic clearance (CIint; a measure of the removal of a compound from the liver in the absence of blood flow and cell binding). Clearance data are particularly important for in vitro work as they can be used in combination with in vivo data to predict the half-life and oral bioavailability of a drug.
(§2) The metabolic stability in hepatocytes assay involves a time-dependent reaction using both positive and negative controls. The cells were pre-incubated at 37° C. then spiked with test compound (and positive control); samples were taken at pre-determined time intervals and were analysed to monitor the change in concentration of the initial drug compound over 60 minutes. A buffer incubation reaction (with no hepatocytes present) acted as a negative control and two cocktail solutions, containing compounds with known high and low clearance values (verapamil/7-hydroxycoumarin and propranolol/diltiazem), acted as positive controls. • 1. The assay was run with a cell concentration of 0.5×10^6 cells/mL in Leibovitz buffer. • 2. All compounds and controls were run in duplicate. • 3. Compound concentration was 10 μM. • 4. All compounds and controls were incubated with both cells and buffer to show turnover was due to hepatic metabolism. • 5. All wells on the incubation plate had 326.7 μL of either cells or buffer added. • 6. Prior to assay, cell and buffer-only incubation plates were preincubated for 10 mins at 37° C. • 7. The assay was initiated by adding compounds, 3.3 μL of 1 mM in 10% DMSO—90% Buffer; final DMSO concentration was 0.1%. • 8. Samples were taken at regular timepoints (0, 5, 10, 20, 40, 60 min) until 60 mins. • 9. Sample volume was 40 μL and was added to 160 μL of crash solvent (acetonitrile with internal standard) and stored on ice. • 10. At the end of the assay, the crash plates were centrifuged at 3500 rpm for 20 mins at 4° C. • 11. 80 μL of clear supernatant was removed and mixed with 80 μL of deionised water before being analysed by LC-MS/MS.
(§3) Raw LC-MS/MS data was exported to, and analysed in, Microsoft Excel for determination of intrinsic clearance. The percentage remaining of a compound was monitored using the peak area of the initial concentration as 100%. Intrinsic clearance and half-life values were calculated using a graph of the natural log of percentage remaining versus the time of reaction in minutes.

[2] = Hepatocyte stability assay, mouse; type: in vitro ADME; conditions: mouse, hepatocytes; for hepatocyte CLint at 10 μM: Hepatocyte stability Clint; for half-life at 10 μM: Hepatocyte stability T½
Excerpt: as §1, §2, §3

[3] = tested on: IL-1β cytokine output from THP-1s; experiment: THP-1 AlphaLISA IL-1β cytokine inhibition assay; type: cell-based; conditions: Homo sapiens, THP-1, differentiated THP-1 cells, LPS then nigericin
Description: Measuring Inhibitory Effects on IL-1β Cytokine Output from THP-1s
The cytokine inhibition profiles of compounds of formula (I) were determined in a differentiated THP-1 cell assay. All assays were performed in RPMI-1640 growth medium (Gibco), supplemented with 10% fetal bovine serum (FBS; Gibco), 1% penicillin-streptomycin and 1% sodium pyruvate unless specified otherwise. The IL-1β cytokine inhibition assay was run in a background of differentiated THP-1 cells as described below. All reagents described were from Sigma-Aldrich unless specified otherwise. Compounds were prepared as 10 mM DMSO stocks.
THP-1 cells were expanded as a suspension up to 80% confluence in appropriate growth medium. Cells were harvested, suspended, and treated with an appropriate concentration of phorbol 12-myristate 13-acetate (PMA) over a 72 hr period (37° C./5% CO2).
Following 72 hrs of THP-1 cell incubation, cellular medium was removed and replaced with fresh growth media containing 1% of FBS. Working concentrations of compounds were prepared separately in 10% FBS treated growth medium and pre-incubated with the cells for 30 minutes (37° C./5% CO2). Following the 30 minute compound pre-incubation, THP-1s were treated with an appropriate concentration of LPS and the cells were subsequently incubated for a 24 hr period (37° C./5% CO2). An appropriate final concentration of Nigericin was then dispensed into the THP-1 plates and incubated for 1 hour (37° C./5% CO2) before THP-1 supernatants were harvested and collected in separate polypropylene 96-well holding plates.
Reagents from an IL-1β and IL-6 commercial kit (Perkin Elmer) were prepared and run according to the manufacturer's instructions. Subsequently, fluorescence signal detection in a microplate reader was measured (EnVision® Multilabel Reader, Perkin Elmer).
Percentage inhibition was calculated per cytokine by normalising the sample data to the high and low controls used within each plate (+/− LPS respectively).

| hepatocyte CLint at 10 μM [1] | half-life at 10 μM [1] | hepatocyte CLint at 10 μM [2] | half-life at 10 μM [2] | pIC50 [3] | SMILES |
| --- | --- | --- | --- | --- | --- |
| 290 µL/min/1e6 cells | 5 min | > 460 µL/min/1e6 cells | < 3 min | 4.70 | C=C(Cc1cnc(CCCCCCCC)cn1)C(=O)O [Example 113] |
| 28 µL/min/1e6 cells | 55 min | 87 µL/min/1e6 cells | 15 min | 5.10 | C=C(Cc1nc(C2(c3ccc(C4CCCC4)cc3)CC2)no1)C(=O)O [Example 115] |
| 60 µL/min/1e6 cells | 25 min | 290 µL/min/1e6 cells | 5 min | 4.55 | C=C(Cc1ccc(CCCCCCCC)nn1)C(=O)O [Example 116] |
| 245 µL/min/1e6 cells | 6 min | 478 µL/min/1e6 cells | 3 min | 4.84 | C=C(Cc1nc(Cc2ccc(CCCC)cc2)co1)C(=O)O [Example 127, 2-((4-(4-butylbenzyl)oxazol-2-yl)methyl)acrylic acid] |
| 49 µL/min/1e6 cells | 30 min | 256 µL/min/1e6 cells | 6 min | 4.58 | C=C(Cc1nc(Cc2ccc(C3CCC3)cc2)no1)C(=O)O [Example 128, 2-((3-(4-cyclobutylbenzyl)-1,2,4-oxadiazol-5-yl)methyl)acrylic acid] |
| 34 µL/min/1e6 cells | 43 min | 139 µL/min/1e6 cells | 11 min | 5.10 | C=C(Cc1nc(C2(c3ccc(C4CCC4)cc3)CC2)no1)C(=O)O [Example 131, 2-((3-(1-(4-cyclobutylphenyl)cyclopropyl)-1,2,4-oxadiazol-5-yl)methyl)acrylic acid] |
| 13 µL/min/1e6 cells | 112 min | 17 µL/min/1e6 cells | 75 min | 4.80 | C=C(Cc1nc(Cc2cc(Cl)c(F)c(Cl)c2)no1)C(=O)O [Example 134, 2-((3-(3,5-dichloro-4-fluorobenzyl)-1,2,4-oxadiazol-5-yl)methyl)acrylic acid] |
| 96 µL/min/1e6 cells | 15 min | > 460 µL/min/1e6 cells | < 3 min | 5.52 | C=C(Cc1nc(C2(c3ccc(Br)c(Cl)c3)CC2)no1)C(=O)O [Example 138, 2-((3-(1-(4-bromo-3-chlorophenyl)cyclopropyl)-1,2,4-oxadiazol-5-yl)methyl)acrylic acid] |
| 67 µL/min/1e6 cells | 22 min | > 460 µL/min/1e6 cells | < 3 min | 4.52 | C=C(Cc1nc(Cc2ccc(C3(CCC)CC3)cc2)no1)C(=O)O [Example 147, 2-((3-(4-(1-propylcyclopropyl)benzyl)-1,2,4-oxadiazol-5-yl)methyl)acrylic acid] |
| 53 µL/min/1e6 cells | 23 min | 105 µL/min/1e6 cells | 19 min | 4.64 | C=C(Cc1nc(C(F)(F)c2ccc(C)c(Cl)c2)no1)C(=O)O [Example 151, 2-((3-((3-chloro-4-methylphenyl)difluoromethyl)-1,2,4-oxadiazol-5-yl)methyl)acrylic acid] |
| 41 µL/min/1e6 cells | 35 min | 203 µL/min/1e6 cells | 7 min | 5.02 | C=C(Cc1nc(C(F)(F)c2ccc(Br)c(Cl)c2)no1)C(=O)O [Example 154, 2-((3-((4-bromo-3-chlorophenyl)difluoromethyl)-1,2,4-oxadiazol-5-yl)methyl)acrylic acid] |

| SMILES | hepatocyte CLint at 10 μM [1] | half-life at 10 μM [1] | hepatocyte CLint at 10 μM [2] | half-life at 10 μM [2] | pIC50 [3] |
| --- | --- | --- | --- | --- | --- |
| C=C(Cc1nc(-c2ccc(C(F)(F)CCC)cc2)no1)C(=O)O [Example 98, 2-((3-(4-(1,1-difluorobutyl)phenyl)-1,2,4-oxadiazol-5-yl)methyl)acrylic acid] | 70 µL/min/1e6 cells | 23 min | 208 µL/min/1e6 cells | 6 min | 4.43 |
| C=C(Cc1nc(-c2ccc(OCc3ccccc3)cc2)no1)C(=O)O [Example 100, 2-((3-(4-(benzyloxy)phenyl)-1,2,4-oxadiazol-5-yl)methyl)acrylic acid] | 77 µL/min/1e6 cells | 19 min | > 460 µL/min/1e6 cells | < 3 min | 4.59 |
| C=C(Cc1nc(C2(c3ccc(OC4CCC4)cc3)CC2)no1)C(=O)O [Example 111, 2-((3-(1-(4-cyclobutoxyphenyl)cyclopropyl)-1,2,4-oxadiazol-5-yl)methyl)acrylic acid] | 23 µL/min/1e6 cells | 71 min | 382 µL/min/1e6 cells | 3 min | 4.50 |
| C=C(Cc1nc(C2(c3ccc(I)cc3)CC2)no1)C(=O)O [Example 117, 2-((3-(1-(4-iodophenyl)cyclopropyl)-1,2,4-oxadiazol-5-yl)methyl)acrylic acid] | 36 µL/min/1e6 cells | 43 min | 183 µL/min/1e6 cells | 7 min | 5.47 |
| C=C(Cc1nc(C(F)(F)c2ccc(I)cc2)no1)C(=O)O [Example 120, 2-((3-(difluoro(4-iodophenyl)methyl)-1,2,4-oxadiazol-5-yl)methyl)acrylic acid] | 10 µL/min/1e6 cells | 154 min | 66 µL/min/1e6 cells | 20 min | 5.44 |
| C=C(Cc1nc(C(F)(F)c2ccc(S(F)(F)(F)(F)F)cc2)no1)C(=O)O [Example 124, 2-((3-(difluoro(4-(pentafluoro-λ^6-sulfaneyl)phenyl)methyl)-1,2,4-oxadiazol-5-yl)methyl)acrylic acid] | 14 µL/min/1e6 cells | 105 min | 55 µL/min/1e6 cells | 27 min | 4.78 |
| C=C(Cc1nc(-c2ccc(OCCCC)c(F)c2)no1)C(=O)O [Example 129, 2-((3-(4-butoxy-3-fluorophenyl)-1,2,4-oxadiazol-5-yl)methyl)acrylic acid] | 67 µL/min/1e6 cells | 22 min | > 460 µL/min/1e6 cells | < 3 min | 4.69 |
| C=C(Cc1nc(C(F)(F)c2cc(Cl)c(F)c(Cl)c2)no1)C(=O)O [Example 153, 2-((3-((3,5-dichloro-4-fluorophenyl)difluoromethyl)-1,2,4-oxadiazol-5-yl)methyl)acrylic acid] | 23 µL/min/1e6 cells | 62 min | 44 µL/min/1e6 cells | 34 min | 4.76 |
